According to PubChem BioAssay (NCI):
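Cells were grown in 96-well plates and exposed to each compound for 48 hours at five concentrations; endpoints were interpolated linearly between bracketing concentrations, or set to the highest concentration if not reached. The concentration for full growth arrest is given as TGI.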

Assays:
Test in all cases: NCI-60 cell line screen, 48 h
786-0 renal = system: 786-0 renal
A498 renal = system: A498 renal
A549 NSCLC = system: A549 NSCLC
ACHN renal = system: ACHN renal
CAKI-1 renal = system: CAKI-1 renal
CCRF-CEM leukemia = system: CCRF-CEM leukemia
COLO 205 colon = system: COLO 205 colon
DLD-1 colon = system: DLD-1 colon
DMS 114 small cell lung = system: DMS 114 small cell lung
EKVX NSCLC = system: EKVX NSCLC
HCC-2998 colon = system: HCC-2998 colon
HCT-116 colon = system: HCT-116 colon
HCT-15 colon = system: HCT-15 colon
HL-60(TB) leukemia = system: HL-60(TB) leukemia
HOP-62 NSCLC = system: HOP-62 NSCLC
HT29 colon = system: HT29 colon
IGROV1 ovarian = system: IGROV1 ovarian
K-562 leukemia = system: K-562 leukemia
KM12 colon = system: KM12 colon
KM20L2 colon = system: KM20L2 colon
LOX IMVI melanoma = system: LOX IMVI melanoma
LXFL 529 NSCLC = system: LXFL 529 NSCLC
M14 melanoma = system: M14 melanoma
M19-MEL melanoma = system: M19-MEL melanoma
MALME-3M melanoma = system: MALME-3M melanoma
MOLT-4 leukemia = system: MOLT-4 leukemia
NCI-H226 lung = system: NCI-H226 lung
NCI-H23 lung = system: NCI-H23 lung
NCI-H460 lung = system: NCI-H460 lung
NCI-H522 lung = system: NCI-H522 lung
OVCAR-3 ovarian = system: OVCAR-3 ovarian
OVCAR-4 ovarian = system: OVCAR-4 ovarian
OVCAR-5 ovarian = system: OVCAR-5 ovarian
OVCAR-8 ovarian = system: OVCAR-8 ovarian
RPMI-8226 leukemia = system: RPMI-8226 leukemia
SF-268 CNS = system: SF-268 CNS
SF-295 CNS = system: SF-295 CNS
SF-539 CNS = system: SF-539 CNS
SK-MEL-2 melanoma = system: SK-MEL-2 melanoma
SK-MEL-5 melanoma = system: SK-MEL-5 melanoma
SK-OV-3 ovarian = system: SK-OV-3 ovarian
SN12C renal = system: SN12C renal
SNB-19 CNS = system: SNB-19 CNS
SNB-78 CNS = system: SNB-78 CNS
SR leukemia = system: SR leukemia
SW-620 colon = system: SW-620 colon
U251 CNS = system: U251 CNS
UACC-257 melanoma = system: UACC-257 melanoma
UACC-62 melanoma = system: UACC-62 melanoma
UO-31 renal = system: UO-31 renal
HOP-92 NSCLC = system: HOP-92 NSCLC
SK-MEL-28 melanoma = system: SK-MEL-28 melanoma
SNB-75 CNS = system: SNB-75 CNS
TK-10 renal = system: TK-10 renal
DMS 273 small cell lung = system: DMS 273 small cell lung
HOP-18 NSCLC = system: HOP-18 NSCLC

## CCCCC#COS(=O)(=O)c1ccc(C)cc1
786-0 renal
  TGI: > 100 µM
A498 renal
  TGI: > 100 µM
A549 NSCLC
  TGI: > 100 µM
ACHN renal
  TGI: > 100 µM
CAKI-1 renal
  TGI: > 100 µM
CCRF-CEM leukemia
  TGI: > 100 µM
COLO 205 colon
  TGI: > 100 µM
DLD-1 colon
  TGI: > 100 µM
DMS 114 small cell lung
  TGI: > 100 µM
EKVX NSCLC
  TGI: > 100 µM
HCC-2998 colon
  TGI: > 100 µM
HCT-116 colon
  TGI: > 100 µM
HCT-15 colon
  TGI: > 100 µM
HL-60(TB) leukemia
  TGI: > 100 µM
HOP-62 NSCLC
  TGI: > 100 µM
HT29 colon
  TGI: > 100 µM
IGROV1 ovarian
  TGI: > 100 µM
K-562 leukemia
  TGI: > 100 µM
KM12 colon
  TGI: > 100 µM
KM20L2 colon
  TGI: > 100 µM
LOX IMVI melanoma
  TGI: > 100 µM
LXFL 529 NSCLC
  TGI: > 100 µM
M14 melanoma
  TGI: > 100 µM
M19-MEL melanoma
  TGI: > 100 µM
MALME-3M melanoma
  TGI: > 100 µM
MOLT-4 leukemia
  TGI: > 100 µM
NCI-H226 lung
  TGI: 84.9 µM
NCI-H23 lung
  TGI: > 100 µM
NCI-H460 lung
  TGI: > 100 µM
NCI-H522 lung
  TGI: > 100 µM
OVCAR-3 ovarian
  TGI: > 100 µM
OVCAR-4 ovarian
  TGI: > 100 µM
OVCAR-5 ovarian
  TGI: > 100 µM
OVCAR-8 ovarian
  TGI: > 100 µM
RPMI-8226 leukemia
  TGI: > 100 µM
SF-268 CNS
  TGI: > 100 µM
SF-295 CNS
  TGI: > 100 µM
SF-539 CNS
  TGI: > 100 µM
SK-MEL-2 melanoma
  TGI: > 100 µM
SK-MEL-5 melanoma
  TGI: > 100 µM
SK-OV-3 ovarian
  TGI: > 100 µM
SN12C renal
  TGI: > 100 µM
SNB-19 CNS
  TGI: > 100 µM
SNB-78 CNS
  TGI: > 100 µM
SR leukemia
  TGI: > 100 µM
SW-620 colon
  TGI: > 100 µM
U251 CNS
  TGI: > 100 µM
UACC-257 melanoma
  TGI: > 100 µM
UACC-62 melanoma
  TGI: > 100 µM
UO-31 renal
  TGI: > 100 µM

## COc1cccc([C@@]2(O)c3c(ccc(O)c3OC)[C@H]2OC)c1OC
786-0 renal
  TGI: 30.3 µM
A498 renal
  TGI: > 100 µM
A549 NSCLC
  TGI: > 100 µM
ACHN renal
  TGI: > 100 µM
CAKI-1 renal
  TGI: 78.4 µM
CCRF-CEM leukemia
  TGI: > 100 µM
DLD-1 colon
  TGI: > 100 µM
EKVX NSCLC
  TGI: > 100 µM
HCC-2998 colon
  TGI: > 100 µM
HL-60(TB) leukemia
  TGI: 57.3 µM
HOP-62 NSCLC
  TGI: > 100 µM
HOP-92 NSCLC
  TGI: > 100 µM
HT29 colon
  TGI: > 100 µM
IGROV1 ovarian
  TGI: > 100 µM
K-562 leukemia
  TGI: > 100 µM
KM12 colon
  TGI: > 100 µM
KM20L2 colon
  TGI: > 100 µM
LXFL 529 NSCLC
  TGI: 62.1 µM
M14 melanoma
  TGI: > 100 µM
MALME-3M melanoma
  TGI: > 100 µM
MOLT-4 leukemia
  TGI: > 100 µM
NCI-H226 lung
  TGI: > 100 µM
NCI-H23 lung
  TGI: > 100 µM
NCI-H460 lung
  TGI: > 100 µM
NCI-H522 lung
  TGI: 52.2 µM
OVCAR-3 ovarian
  TGI: > 100 µM
OVCAR-4 ovarian
  TGI: > 100 µM
OVCAR-5 ovarian
  TGI: > 100 µM
OVCAR-8 ovarian
  TGI: > 100 µM
RPMI-8226 leukemia
  TGI: > 100 µM
SF-268 CNS
  TGI: > 100 µM
SF-295 CNS
  TGI: > 100 µM
SK-MEL-2 melanoma
  TGI: > 100 µM
SK-MEL-28 melanoma
  TGI: > 100 µM
SK-MEL-5 melanoma
  TGI: > 100 µM
SK-OV-3 ovarian
  TGI: > 100 µM
SN12C renal
  TGI: > 100 µM
SNB-19 CNS
  TGI: > 100 µM
SNB-75 CNS
  TGI: > 100 µM
SNB-78 CNS
  TGI: > 100 µM
SR leukemia
  TGI: > 100 µM
SW-620 colon
  TGI: > 100 µM
TK-10 renal
  TGI: 93.6 µM
U251 CNS
  TGI: > 100 µM
UACC-257 melanoma
  TGI: > 100 µM
UO-31 renal
  TGI: > 100 µM

## CCCCCCC1NN(C(C)=O)C(CCCCCC)NN1C(C)=O (stereo not given)
786-0 renal
  TGI: > 100 µM
ACHN renal
  TGI: > 100 µM
CAKI-1 renal
  TGI: > 100 µM
CCRF-CEM leukemia
  TGI: > 100 µM
COLO 205 colon
  TGI: > 100 µM
DLD-1 colon
  TGI: > 100 µM
DMS 273 small cell lung
  TGI: > 100 µM
EKVX NSCLC
  TGI: > 100 µM
HCC-2998 colon
  TGI: > 100 µM
HCT-116 colon
  TGI: > 100 µM
HCT-15 colon
  TGI: > 100 µM
HL-60(TB) leukemia
  TGI: > 100 µM
HOP-18 NSCLC
  TGI: > 100 µM
HOP-62 NSCLC
  TGI: > 100 µM
HOP-92 NSCLC
  TGI: > 100 µM
HT29 colon
  TGI: > 100 µM
IGROV1 ovarian
  TGI: > 100 µM
K-562 leukemia
  TGI: > 100 µM
KM12 colon
  TGI: > 100 µM
KM20L2 colon
  TGI: > 100 µM
LOX IMVI melanoma
  TGI: 46.7 µM
LXFL 529 NSCLC
  TGI: > 100 µM
M14 melanoma
  TGI: > 100 µM
M19-MEL melanoma
  TGI: > 100 µM
MALME-3M melanoma
  TGI: > 100 µM
MOLT-4 leukemia
  TGI: > 100 µM
NCI-H226 lung
  TGI: > 100 µM
NCI-H23 lung
  TGI: > 100 µM
NCI-H460 lung
  TGI: 33.7 µM
NCI-H522 lung
  TGI: > 100 µM
OVCAR-3 ovarian
  TGI: > 100 µM
OVCAR-4 ovarian
  TGI: > 100 µM
OVCAR-5 ovarian
  TGI: > 100 µM
OVCAR-8 ovarian
  TGI: > 100 µM
RPMI-8226 leukemia
  TGI: 67.4 µM
SF-295 CNS
  TGI: > 100 µM
SF-539 CNS
  TGI: > 100 µM
SK-MEL-2 melanoma
  TGI: > 100 µM
SK-MEL-5 melanoma
  TGI: > 100 µM
SK-OV-3 ovarian
  TGI: > 100 µM
SN12C renal
  TGI: > 100 µM
SNB-19 CNS
  TGI: > 100 µM
SNB-75 CNS
  TGI: > 100 µM
SW-620 colon
  TGI: 46.1 µM
TK-10 renal
  TGI: > 100 µM
U251 CNS
  TGI: > 100 µM
UACC-257 melanoma
  TGI: > 100 µM
UACC-62 melanoma
  TGI: > 100 µM
UO-31 renal
  TGI: > 100 µM
